Measurements reported in patent US20060167057A1, “Compounds for the treatment of CNS and amyloid associated diseases” (priority 2004, published 2006).

Biological target: T1, L1 transport system (large neutral amino acid carrier, L1-system carrier) (Rattus norvegicus, UniProt Q63016)
T1 construct: functionality of their endogenous transporters such as the L1-system carrier; endogenous in cells; host or cells: rat primary cerebrovascular (brain microcapillary) endothelial cells, RBEC
Assay: Competitive binding assay to the brain L1 transport system (L-[U-14C]phenylalanine on rat primary cerebrovascular endothelial cells)
Conditions: for Status of Binding: compounds of Example 4, 10^−6, 10^−5 and 10^−4, Δ versus phenylalanine
Experimental: Compound samples in PBS (without Ca^+2, Mg^+2)-glucose 30 mM-HEPES 10 mM—DMSO 1% as prepared in Example 1 were thawed and left for at least 30 minutes at 20-23° C. before preparation of the following sub-dilutions for the competitive binding assay: • 200 μL of the stock solution were added to 800 μL PBS (without Ca^+2, Mg^+2)-Glucose-HEPES-1% DMSO (PBSD-1) [diluted 1:5 for a final 1:5 dilution] • 100 μL (1/5 dilution above) were added to 900 μL PBSD-1 [diluted 1:10 for a final 1:50 dilution] • 100 μL (1/50 dilution above) were added to 900 μL PBSD-1 [diluted 1:10 for a final 1:500 dilution]
These sub-dilutions were used immediately or stored overnight at 4° C. before the competitive binding assay. A volume of 45 μL of each of the compound dilutions (1:5, 1:50, 1:500) in PBSD-1 was added to the appropriate wells in the dilution plate.
Brains from sixty 24-day-old rats were dissected individually on a sterile lint moistened with ice cold Hanks' balanced salt solution (Gibco BRL, Grand Island, N.Y.) containing 10 mM HEPES (medium 1) supplemented with 0.1% BSA. Cerebellum, striatum, optic nerves, and brain stem (white matter) were removed. After a mid-sagittal section of the brain, the meninges and leptomeningeal debris were removed by rolling a sterile dry cotton swab on the cortices. (Ichikawa N, Naora K, Hirano H, Hashimoto M, Masumura S, and Iwamoto K (1996). Isolation and primary culture of rat cerebral microvascular endothelial cells for studying drug transport in vitro. J Pharmacol Toxicol Meth 36: 45-52.). Clean cortices were minced in pieces of ≈2 mm^3 in 15 mL of ice-cold medium 1-0.1% BSA. The preparation was divided into 4 sterile pre-weighed tubes and centrifuged at 330× g at 20-25° C. for 5 min. Tubes were weighed and pre-warmed (37° C.) and medium 1 with 0.5% BSA containing 0.3% collagenase and 10 μg/mL DNAse 1 (Roche, Laval, Quebec, Canada) were added to each tube (1 mL/g of tissue).
The brain-collagenase mixture was vigorously agitated in a water bath at 37° C. for 90 min. Fifteen min before the end of the digestion, the tissue was homogenized using a 10-mL pipette until a creamy mixture was obtained (≈20 aspirations). Cells were washed by adding medium 1 with 0.1% BSA to the homogenate (26 mL/tube) and centrifuged at 100× g at 20-25° C. for 7 min. This washing step was repeated 3 more times, once for 5 min and twice for 3 min. Each pellet was re-suspended in 25 mL of a 15% dextran solution prepared in medium 1 with 0.1% BSA and centrifuged at 3200× g at 4° C. for 25 min to isolate vessels from neural tissue and dextran layers. Vascular pellets were re-suspended in 5 mL Ca^++—Mg^++-free-medium 1 with 0.1% BSA (medium 2) at 20-25° C. and transferred in a 50-mL tube. Remaining vessels were collected by rinsing the tubes and pooling the rinsing suspension. (Rupnick M A, Carey A, and Williams S K (1988). Phenotypic diversity in cultured cerebral microvascular endothelial cells in vitro. Cell Develop Biol 24: 435-444.)
The vascular preparation was filtered and rinsed (20 mL of medium 2) through a sterile 355-μm mesh. The 355-μm filtrate was sequentially filtered twice (20 mL of medium 2) through sterile 112-μm meshes and rinsed (Stanimirovic D B, Wong J, Ball R, and Durkin J P (1995). Free radical-induced endothelial membrane dysfunction at the site of the blood-brain barrier: relationship between lipid peroxidation, Na,K-ATPase activity, and ^51Cr release. Neurochem Res 20:1417-1427.) and the latter filtrate was filtered and rinsed through a sterile 20-μm mesh. A final step of filtration and rinse was repeated through a double layer of 20-μm meshes. All 20-μm meshes, which retained the microcapillaries, were then transferred into a 50-mL tube containing 20 mL of a 0.1% collagenase/dispase (Roche) solution in medium 2 supplemented with 10 μg/mL DNAse 1 and 0.147 μg/mL tosyl-lysine-chloromethyl-ketone (Sigma Chemical Co., Oakville, Ontario, Canada) (medium 3).

T1 sequence (Q63016 whole entry): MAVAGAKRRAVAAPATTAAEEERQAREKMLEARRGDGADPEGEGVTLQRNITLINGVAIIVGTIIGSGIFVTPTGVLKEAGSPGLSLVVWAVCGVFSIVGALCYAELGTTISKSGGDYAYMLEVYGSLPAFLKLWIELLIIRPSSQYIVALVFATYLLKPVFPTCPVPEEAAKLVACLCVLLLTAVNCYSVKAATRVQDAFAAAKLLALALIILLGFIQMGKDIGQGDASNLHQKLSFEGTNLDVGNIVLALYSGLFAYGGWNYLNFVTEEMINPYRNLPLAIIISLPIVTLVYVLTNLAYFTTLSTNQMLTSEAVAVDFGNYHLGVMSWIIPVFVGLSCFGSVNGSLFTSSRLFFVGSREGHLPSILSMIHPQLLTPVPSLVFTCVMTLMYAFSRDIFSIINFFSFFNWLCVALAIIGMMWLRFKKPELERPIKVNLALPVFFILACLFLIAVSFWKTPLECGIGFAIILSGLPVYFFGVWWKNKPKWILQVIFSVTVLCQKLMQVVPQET
T1 sequence (Q794F9 whole entry partner): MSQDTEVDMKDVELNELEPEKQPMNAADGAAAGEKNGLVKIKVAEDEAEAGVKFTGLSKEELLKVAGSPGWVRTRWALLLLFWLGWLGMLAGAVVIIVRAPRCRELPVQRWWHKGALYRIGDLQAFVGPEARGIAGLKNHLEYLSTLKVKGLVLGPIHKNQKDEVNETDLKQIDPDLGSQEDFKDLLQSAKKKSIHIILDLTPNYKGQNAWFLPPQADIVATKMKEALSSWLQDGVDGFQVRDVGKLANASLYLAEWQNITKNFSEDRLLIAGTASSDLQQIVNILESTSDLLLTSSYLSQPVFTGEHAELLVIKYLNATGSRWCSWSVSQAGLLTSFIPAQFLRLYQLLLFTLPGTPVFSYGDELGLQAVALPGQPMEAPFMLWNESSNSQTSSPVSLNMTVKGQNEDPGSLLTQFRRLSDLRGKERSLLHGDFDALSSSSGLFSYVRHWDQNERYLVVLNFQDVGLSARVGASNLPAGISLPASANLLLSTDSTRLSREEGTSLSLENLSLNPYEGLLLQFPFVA

SMILES | Comparison with the Binding of Phenylalanine (10^−4 M) | Comparison with the Binding of Phenylalanine (10^−5 M) | Comparison with the Binding of Phenylalanine (10^−6 M) | Status of Binding
NC(Cc1cccc(CSc2nc3ccccc3[nH]2)n1)C(=O)O (stereo not drawn) [Compound 27] | 3 (X > 20 Rank 3) | 3 (X > 20 Rank 3) | 3 (X > 20 Rank 3) | 
NC(Cc1cccc(CSc2nnc(-c3ccccc3)o2)c1)C(=O)O (stereo not drawn) [Compound 1] | 2 (10 < X < 20 Rank 2) | 3 (X > 20 Rank 3) | 2 (10 < X < 20 Rank 2) | 
NC(=O)C(N)Cc1cccc(CSc2nccc(C(F)(F)F)n2)n1 (stereo not drawn) [Compound 22] | 0 (X < 0 Rank 0) | 1 (0 < X < 10 Rank 1) | 0 (X < 0 Rank 0) | 
N[C@@H](Cc1ccccc1)C(=O)NC(Cc1cccc(CSc2nnnn2-c2ccccc2)c1)C(=O)O (stereo partly drawn) [Compound 53] | 0 (X < 0 Rank 0) | 2 (10 < X < 20 Rank 2) | 2 (10 < X < 20 Rank 2) | 
NC(Cc1cccc(CSc2nnc(-c3ccncc3)o2)c1)C(=O)O (stereo not drawn) [Compound 10] | 0 (X < 0 Rank 0) | 1 (0 < X < 10 Rank 1) | 3 (X > 20 Rank 3) | 
N[C@@H](Cc1cccc(C[S+]([O-])c2nnnn2-c2ccccc2)c1)C(=O)O (stereo partly drawn) [drawing 475] |  |  |  | 3 (3: Δ > 10%, significantly higher binding affinity than phenylalanine)
NC(Cc1cccc(CSc2ccnc3cc(C(F)(F)F)ccc23)n1)C(=O)O (stereo not drawn) [Compound 45] | 0 (X < 0 Rank 0) | 2 (10 < X < 20 Rank 2) | 0 (X < 0 Rank 0) | 
N[C@@H](Cc1ccccc1)C(=O)NC(Cc1cccc(CSc2nc3ccccc3o2)n1)C(=O)O (stereo partly drawn) [Compound 32] | 0 (X < 0 Rank 0) | 1 (0 < X < 10 Rank 1) | 3 (X > 20 Rank 3) | 
NC(Cc1ccc(-c2ccc(CN3CC=CCC3)cc2)cc1)C(=O)O (stereo not drawn) [Compound 44] | 0 (X < 0 Rank 0) | 1 (0 < X < 10 Rank 1) | 0 (X < 0 Rank 0) | 
NC(Cc1cccc(CSc2ncc[nH]2)c1)C(=O)O (stereo not drawn) [Compound 5] | 3 (X > 20 Rank 3) | 3 (X > 20 Rank 3) | 3 (X > 20 Rank 3) | 
O=C(O)C(Cc1cccc(CSc2ncnc3[nH]ncc23)n1)NS(=O)(=O)c1ccc(F)cc1 (stereo not drawn) [Compound 64] | 0 (X < 0 Rank 0) | 1 (0 < X < 10 Rank 1) | 0 (X < 0 Rank 0) | 
NC(=O)C(N)Cc1cccc(CSc2nccc(N)n2)n1 (stereo not drawn) [Compound 39] | 0 (X < 0 Rank 0) | 2 (10 < X < 20 Rank 2) | 3 (X > 20 Rank 3) | 
N[C@@H](Cc1cccc(CSc2nnc(-c3ccccc3)[nH]2)c1)C(=O)O [drawing 470] |  |  |  | 2 (2: 10% ≧ Δ ≧ −10% similar binding affinity to phenylalanine)
COc1ccc(-n2nnnc2SCc2cccc(C[C@H](N)C(=O)O)c2)cc1 [drawing 467] |  |  |  | 3 (3: Δ > 10%, significantly higher binding affinity than phenylalanine)
O=C(Nc1ccc(-c2ccccc2)cc1)NC(Cc1cccc(CSc2nnnn2-c2ccc(O)cc2)c1)C(=O)O (stereo not drawn) [Compound 51] | 0 (X < 0 Rank 0) | 3 (X > 20 Rank 3) | 2 (10 < X < 20 Rank 2) | 
O=C(Nc1ccc(-c2ccccc2)cc1)NC(Cc1cccc(CSc2nc3ccccc3o2)n1)C(=O)O (stereo not drawn) [Compound 63] | 0 (X < 0 Rank 0) | 0 (X < 0 Rank 0) | 1 (0 < X < 10 Rank 1) | 
NC(Cc1cccc(CSc2ncnc3[nH]ncc23)n1)C(=O)O (stereo not drawn) [Compound 33] | 3 (X > 20 Rank 3) | 3 (X > 20 Rank 3) | 3 (X > 20 Rank 3) | 

Continued, in another order:

Comparison with the Binding of Phenylalanine (10^−4 M) | Comparison with the Binding of Phenylalanine (10^−5 M) | Comparison with the Binding of Phenylalanine (10^−6 M) | SMILES | Status of Binding
0 (X < 0 Rank 0) | 0 (X < 0 Rank 0) | 2 (10 < X < 20 Rank 2) | NC(Cc1cccc(CSc2ccc3ccccc3n2)c1)C(=O)O (stereo not drawn) [Compound 114] | 
3 (X > 20 Rank 3) | 3 (X > 20 Rank 3) | 3 (X > 20 Rank 3) | CN(C)CCn1nnnc1SCc1ccc(-c2ccc(CC(N)C(=O)O)cc2)cc1 (stereo not drawn) [Compound 118] | 
0 (X < 0 Rank 0) | 0 (X < 0 Rank 0) | 1 (0 < X < 10 Rank 1) | NC(Cc1cccc(-c2cccc(Sc3ccc4ccccc4n3)c2)c1)C(=O)O (stereo not drawn) [Compound 144] | 
0 (X < 0 Rank 0) | 0 (X < 0 Rank 0) | 1 (0 < X < 10 Rank 1) | NC(Cc1cccc(-c2cccc(Sc3nnnn3CC(=O)O)c2)c1)C(=O)O (stereo not drawn) [Compound 138] | 
0 (X < 0 Rank 0) | 0 (X < 0 Rank 0) | 1 (0 < X < 10 Rank 1) | NC(Cc1ccc(-c2ccc(CSc3ncccc3C(=O)O)cc2)cc1)C(=O)O (stereo not drawn) [Compound 93] | 
2 (10 < X < 20 Rank 2) | 2 (10 < X < 20 Rank 2) | 2 (10 < X < 20 Rank 2) | NC(Cc1cccc(-c2cccc(N3CCN(c4ccc(F)cc4)CC3)c2)c1)C(=O)O (stereo not drawn) [Compound 105] | 
0 (X < 0 Rank 0) | 0 (X < 0 Rank 0) | 2 (10 < X < 20 Rank 2) | NC(Cc1ccc(-c2ccc(CSc3nnnn3CC(=O)O)cc2)cc1)C(=O)O (stereo not drawn) [Compound 153] | 
0 (X < 0 Rank 0) | 0 (X < 0 Rank 0) | 1 (0 < X < 10 Rank 1) | Cc1nc(SCc2cccc(CC(N)C(=O)O)n2)sc1CC(=O)O (stereo not drawn) [Compound 92] | 
0 (X < 0 Rank 0) | 0 (X < 0 Rank 0) | 1 (0 < X < 10 Rank 1) | NC(Cc1cccc(CN2CCN(c3cccc(Cl)c3)CC2)c1)C(=O)O (stereo not drawn) [Compound 71] | 
0 (X < 0 Rank 0) | 0 (X < 0 Rank 0) | 2 (10 < X < 20 Rank 2) | NC(Cc1cccc(CSc2ncccc2C(=O)O)c1)C(=O)O (stereo not drawn) [Compound 137] | 
2 (10 < X < 20 Rank 2) | 3 (X > 20 Rank 3) | 3 (X > 20 Rank 3) | CC(=O)c1ccc(N2CCN(Cc3cccc(CC(N)C(=O)O)c3)CC2)cc1 (stereo not drawn) [Compound 112] | 
0 (X < 0 Rank 0) | 1 (0 < X < 10 Rank 1) | 0 (X < 0 Rank 0) | NC(Cc1cccc(CN2CCN(c3ccccn3)CC2)n1)C(=O)O (stereo not drawn) [Compound 98] | 
